# Where two headings read alike, the source gives them in different places.
# Tests used:
# A. baumannii ATCC 1515 = experiment: Membrane depolarization detected by DiOC2(3); type: cell-based; conditions: 1xMIC; 20 μM CCCP; 25 minutes
# MRSA ATCC BAA-44 = experiment: MIC on MRSA ATCC BAA-44; type: cell-based, S. aureus; conditions: for MIC: Staphylococcus aureus
# Description: MRSA BAA-44: MRSA ATCC BAA-44 was grown from a glycerol stock by placing a small volume of cells onto a Mueller-Hinton agar plate (MHA). The MHA plate was incubated overnight at 37° C. A single colony was used to inoculate Mueller-Hinton broth (MHB) to obtain a bacterial broth suspension. The MHB broth suspension was grown at 37° C. on a rotary shaking incubator (100 rpm) for 12 hours. The bacterial cell concentration was adjusted to ˜5×10^5 colony forming units per milliliter (CFU/mL) in MHB−/+10, 20, or 40% FBS using optical density (OD) at 595 nm. 500 μL aliquots of the adjusted bacterial cell suspension were placed into borosilicate glass tubes. The cell suspensions were treated with 100 μM compound of interest and serially diluted two-fold. The culture tubes were incubated for 18 hours at 37° C. Efficacy was either assessed visually or by adding 10% v/v MTT (5 mg/mL stock) after the 18 hour incubation period, where the cell suspensions were subsequently incubated for 10 minutes to allow the MTT reagent to carry out the colorimetric reaction.
# [1] = tested on: A. baumannii ATCC BAA-1797; experiment: MIC on A. baumannii ATCC BAA-1797; type: cell-based
# Description: A. baumannii: A. baumannii ATCC BAA-1797 was grown from a glycerol stock by placing a small volume of cells onto a MHA plate. The MHA plate was incubated overnight at 37° C. A single colony was used to inoculate MHB to obtain a bacterial broth suspension. The MHB broth suspension was grown at 37° C. on a rotary shaking incubator (100 rpm) for 12 hours. The bacterial cell concentration was adjusted to ˜5×10^5 CFU/mL in MHB or MHB+10%, 20% or 40% FBS using OD at 595 nm. 500 μL aliquots of the adjusted bacterial cell suspension were placed into borosilicate glass tubes. The cell suspensions were treated with a compound of interest, and the treatments were serially diluted two-fold. The culture tubes were incubated for 18 hours at 37° C. Efficacy was either assessed visually or by adding 10% v/v MTT (5 mg/mL stock) after the 18 hour incubation period. The cell suspensions were subsequently incubated for 10 minutes to allow the MTT reagent to carry out the colorimetric reaction. The OD was read at 595 nm.
# [2] = tested on: RecA-GFP fusion protein in E. coli MG1655; experiment: Inhibition of norfloxacin-triggered RecA-GFP induction in E. coli MG1655; type: cell-based; conditions: for killing of E. coli: PME or norfloxacin 30 minutes, then compound, 3.5 hours; for SOS response (RecA-GFP induction): norfloxacin-triggered, sub-potent Polymixin E to facilitate entry
# Description: An increase in DNA damage-induced RecA protein expression is required for identification and repair of DNA lesions. LexA-repressed transcription of a norfloxacin-triggered SOS response was measured by detecting an increase in RecA-GFP fusion protein fluorescence in an E. coli recombinant model. The compounds of the disclosure inhibited RecA-GFP induction and presumably, the concurrent SOS response. Inhibition of RecA-GFP expression correlated with an increase in cell death, most likely as a result of ALD activation. Sub-potent concentrations of Polymixin E were used to facilitate entry of the compounds into cells.
# E. coli MG1655 was grown from a glycerol stock by placing a small volume of cells onto a MHA plate. The MHA plate was incubated overnight at 37° C. A single colony was subsequently used to inoculate MHB+10 μg/mL kanamycin to obtain a bacterial broth suspension. This was grown in at 37° C. on a rotary shaking incubator (100 rpm) for 12 hours. The bacterial cell concentration was adjusted to ˜5×10^5 colony forming units per milliliter (CFU/mL) in MHB using optical density at 595 nm. Treated cells with polymyxin E (PME) or norfloxacin (in μg/ml) at indicated concentrations for 30 minutes at 37° C. and then added a compound of the disclosure at indicated micromolar concentrations. Incubated for 3.5 hours at 37° C. Cell samples were read on the flow cytometer to detect (green fluorescent) RLU RecA expression and/or shutdown.
# E. coli MG1655 was grown from a glycerol stock by placing a small volume of cells onto a MHA plate. The MHA plate was incubated overnight at 37° C. A single colony was subsequently used to inoculate MHB+10 μg/mL kanamycin to obtain a bacterial broth suspension. The MHB broth suspension was grown at 37° C. on a rotary shaking incubator (100 rpm) for 12 hours. The bacterial cell concentration was adjusted to ˜5×10^5 CFU/mL in MHB using OD at 595 nm.
# Cells were treated with 0.03 μg/mL and 0.06 μg/mL norfloxacin for 30 minutes at 37° C. Then, 100 μM of the compounds were added. The cells were incubated for 3.5 hours at 37° C. 200 μL aliquots were removed and read by a flow cytometer to detect RecA production and/or shutdown. The cells were incubated for an additional 18 hours at 37° C. to assess overall toxicity.
# S. aureus = experiment: Evolution of resistance in S. aureus over 32 days; type: cell-based; conditions: for MIC: Staphylococcus aureus; for development of resistance (increase in MIC): 32 days of sub-inhibitory exposure
# Source text: Over a period of 32 days, S. aureus cells were exposed to sub-inhibitory concentrations of the indicated compound, norfloxacin, or oxacillin and sub-cultured at the newly emerged, sub-inhibitory concentration.
# [3] = 0% FBS, read-out: MIC (μM) in MDR A. baumannii ATCC 1797 0% FBS
# [4] = no serum (note in the cell), read-out: MIC (μM) in MRSA BAA-44
# [5] = Acinetobacter baumannii, ATCC 1797 / ATCC BAA-1797, 0% FBS, read-out: MIC (μM) in MDR A. baumannii ATCC 1797 0% FBS
# [6] = Acinetobacter baumannii, ATCC 1797 / ATCC BAA-1797, read-out: MIC (μM) in MDR A. baumannii ATCC 1797 40% FBS, 40% FBS
# [7] = 10% FBS, read-out: MIC (μM) in MRSA BAA-44 10% FBS
# [8] = in 40% FBS (note in the cell), read-out: MIC (μM) in MRSA BAA-44
# [9] = 0 h, read-out: Initial MIC Day 0
MIC (MRSA ATCC BAA-44; [4]),"MIC [1, 5]","MIC [1, 6]",Compound,MIC (S. aureus; [9]),MIC (S. aureus; read-out: Final MIC Day 32),also measured
–,–,–,"N#CC(C#N)=NNc1cccc(Cl)c1 [CCCP, reference compound]",–,–,cell membrane depolarization (A. baumannii ATCC 1515): depolarized the cell membrane
–,–,–,"Brc1ccc(N/N=C/c2c[nH]c3cccc(OCc4ccccc4)c23)cc1 [Compound 34, (E)-4-(benzyloxy)-3-((2-(4-bromophenyl)hydrazineylidene)methyl)-1H-indole]",–,–,"MIC (μM) in MRSA BAA-44 (MRSA ATCC BAA-44; no serum (note in the cell)): 25 (no serum) μM; MIC [1, 3]: 3 µM; MIC (μM) in MDR A. baumannii ATCC 1797 40% FBS [1]: 50 µM"
50 µM,> 100 µM,> 100 µM,"C(=N\NC1=NCCCN1)/c1c[nH]c2cccc(OCc3ccccc3)c12 [Compound 35, (E)-2-(2-((4-(benzyloxy)-1H-indol-3-yl)methylene)hydrazineyl)-3,4,5,6-tetrahydropyrimidin-1-ium 2,2,2-trifluoroacetate]",–,–,–
> 100 µM,> 100 µM,> 100 µM,"C(=N\Nc1ncccn1)/c1c[nH]c2cccc(OCc3ccccc3)c12 [Compound 36, (E)-4-(benzyloxy)-3-((2-(pyrimidin-2-yl)hydrazineylidene)methyl)-1H-indole]",–,–,–
12.5 µM,> 100 µM,> 100 µM,"FC(F)(F)c1ccc(N/N=C/c2c[nH]c3cccc(OCc4ccccc4)c23)cc1 [Compound 37, (E)-4-(benzyloxy)-3-((2-(4-(trifluoromethyl)phenyl) hydrazineylidene)methyl)-1H-indole]",–,–,–
> 100 µM,> 100 µM,> 100 µM,"Nc1ccc(N/N=C/c2c[nH]c3cccc(OCc4ccccc4)c23)cc1 [Compound 38, (E)-4-(2-((4-(benzyloxy)-1H-indol-3-yl)methylene)hydrazineyl) benzenaminium chloride]",–,–,–
–,–,–,"CC(=O)O.Nc1ccc(N/N=C/c2c[nH]c3cccc(OCc4ccccc4)c23)cc1 [Compound 39, (E)-1-(4-aminophenyl)-2-((4-(benzyloxy)-1H-indol-3-yl)methylene)hydrazin-1-ium acetate]",–,–,"MIC (μM) in MRSA BAA-44 (MRSA ATCC BAA-44; no serum (note in the cell)): 50 (no serum) μM; MIC [1, 3]: >100 µM; MIC (μM) in MDR A. baumannii ATCC 1797 40% FBS [1]: >100 µM"
–,–,–,"C(=N\Nc1ncccn1)/c1c[nH]c2cccc(OCc3ccccc3)c12.O=C(O)C(F)(F)F [Compound 40, (E)-2-((4-(benzyloxy)-1H-indol-3-yl)methylene)-1-(pyrimidin-2-yl)hydrazin-1-ium 2,2,2-trifluoroacetate]",–,–,"MIC (MRSA ATCC BAA-44; [7]): > 100 µM; MIC [1, 3]: >100 µM; MIC (μM) in MDR A. baumannii ATCC 1797 40% FBS [1]: >100 µM"
–,12.5 µM,> 100 µM,"NCCCC(=O)Oc1cccc2[nH]cc(/C=N/Nc3ccc(F)cc3)c12 [Compound 41, (E)-3-((2-(4-fluorophenyl)hydrazineylidene)methyl)-1H-indol-4-yl 4-aminobutanoate]",–,–,MIC (μM) in MRSA BAA-44 (MRSA ATCC BAA-44; no serum (note in the cell)): 100 no serum μM
–,–,–,"Cl.NCCCC(=O)Oc1cccc2[nH]cc(/C=N/Nc3ccc(F)cc3)c12 [Compound 42, (E)-4-((3-((2-(4-fluorophenyl)hydrazineylidene)methyl)-1H-indol-4-yl)oxy)-4-oxobutan-1-aminium chloride]",–,–,"MIC (MRSA ATCC BAA-44; in FBS (note in the cell, percentage not given), read-out: MIC (μM) in MRSA BAA-44): 100 µM; MIC (μM) in MRSA BAA-44 (MRSA ATCC BAA-44; no serum (note in the cell)): <25 in no μM; MIC [1, 3]: <25 µM; MIC (μM) in MDR A. baumannii ATCC 1797 40% FBS [1]: >100 µM"
6 µM,6 µM,> 100 µM,"Brc1ccc2c(N/N=C/c3c[nH]c4cccc(OCc5ccccc5)c34)ccnc2c1 [Compound 43, (E)-4-(2-((4-(benzyloxy)-1H-indol-3-yl)methylene)hydrazineyl)-7-bromoquinoline]",–,–,"MIC (MRSA ATCC BAA-44; 18 h, read-out: MIC in the presence of 40% FBS, MRSA ATCC BAA-44, 40% FBS): > 100 µM; MIC (MRSA ATCC BAA-44; MRSA ATCC BAA-44, absence of serum, read-out: MIC in the absence of serum): 6 µM; MIC (MRSA ATCC BAA-44; [8]): > 100 µM"
–,< 100 µM,–,"Cn1cc(/C=N/Nc2ccc(F)cc2)c2c(OCc3ccccc3)cccc21 [Compound 44, (E)-4-(benzyloxy)-3-((2-(4-fluorophenyl)hydrazineylidene)methyl)-1-methyl-1H-indole]",–,–,MIC (MRSA ATCC BAA-44; [7]): < 100 µM
25 µM,25 µM,50 µM,"Cn1cc(/C=N/Nc2ccc(Br)cc2)c2c(OCc3ccccc3)cccc21 [Compound 45, (E)-4-(benzyloxy)-3-((2-(4-bromophenyl)hydrazineylidene)methyl)-1-methyl-1H-indole]",–,–,MIC (MRSA ATCC BAA-44; [8]): > 100 µM
–,–,–,"Brc1ccc(/N=N/c2c[nH]c3ccccc23)cc1 [Compound 47, (E)-3-((4-bromophenyl)diazenyl)-1H-indole]",4 µM,4 µM,killing of E. coli [2]: killed E. coli; SOS response (RecA-GFP induction) [2]: inhibited the SOS response
–,–,–,"Clc1ccc(/N=N/c2c[nH]c3ccccc23)cc1 [Compound 48, (E)-3-((4-chlorophenyl)diazenyl)-1H-indole]",8 µM,8 µM,–
–,–,–,"Clc1ccc(Oc2c(-c3ccc(Cl)cc3)[nH]c3ccccc23)cc1 [Compound 49, 3-(4-chlorophenoxy)-2-(4-chlorophenyl)-1H-indole]",2 µM,1 µM,killing of E. coli [2]: killed E. coli; SOS response (RecA-GFP induction) [2]: inhibited the SOS response
–,–,–,"Clc1ccc(Oc2c(-c3ccc(Cl)cc3)[nH]c3ccc(Cl)cc23)cc1 [Compound 50, 5-chloro-3-(4-chlorophenoxy)-2-(4-chlorophenyl)-1H-indole]",0.25 to 0.5 µM,> 32 µM,–
–,–,–,"CCn1cc(C(=O)O)c(=O)c2cc(F)c(N3CCNCC3)cc21 [Norfloxacin, reference compound]",2 mg/L,> 100 mg/L,development of resistance (increase in MIC) (S. aureus): Dramatic resistance
–,–,–,"Cc1onc(-c2ccccc2)c1C(=O)N[C@@H]1C(=O)N2[C@@H]1SC(C)(C)[C@@H]2C(=O)O [Oxacillin, reference compound]",0.25 mg/L,> 200 mg/L,development of resistance (increase in MIC) (S. aureus): Dramatic resistance
